This assay concerns HT-29 cells. Description: Necrosis assay: TNF-α/Smac mimetic/z-VAD induced necrosis, cell viability by CellTiter-Glo. Particulars: inhibition of necrosis, ATP levels, read-out: EC50 (necrosis activity). In kind it is cell-based. As for the experimental part: HT-29 cells were cultured in McCoy's 5A culture medium (Invitrogen). On day one, HT-29 cells were plated in 96-well assay plates at density of 2,500-3,500 cells per well. On day two, necrosis were induced by adding 20 ng/ml TNF-α (T), 100 nM Smac mimetic (S), and […] z-VAD (Z). At the same time, […] compound from a chemical library of ˜200,000 compounds was delivered into each well. After 24 hrs treatment, cell viability was determined by measuring ATP level using the CellTiter-Glo Luminescent Cell Viability Assay kit. A CellTiter-Glo Assay (Promega) was performed according to the manufacturer's instructions Luminescence was recorded with a PerkinElmer EnSpire Multimode Plate Reader. Survived cells were normalized to those cells treated with DMSO. Nec-1 was used as a positive control for screening necrosis inhibitors. Data are represented as mean±standard deviation of duplicates.
Dose-dependent inhibition of necrosis by compound #9 and the derivative compounds in HT-29 cells were determined by measuring ATP levels as described above.

The mark [1] stands for this setting: Homo sapiens, range given in uM.

Where two headings read alike, the source gives them in different places.

With `C#CC(C)(C)C(=O)N1CC[C@H]1c1ccccc1` [Compound 46, (S)-2,2-dimethyl-1-(2-phenylazetidin-1-yl)but-3-yn-1-one], where the note is “range given in nM”, the EC50 was 1 to 1000 nM. `O=C1C[C@@H](c2ccccc2)N1C(=O)C1C2CC3CC(C2)CC1C3` (stereo partly drawn) [Compound 47, (S)-1-(adamantane-2-carbonyl)-4-phenylazetidin-2-one]: the 50% effective concentration (EC50) under setting [1] lay in the range of 1000 to 10000 nM. Same read-out and setting: in the case of `CCN1C(=O)C[C@H]1c1ccccc1` [Compound 48, (S)-1-ethyl-4-phenylazetidin-2-one] it was 1000 to 100000 nM; in that of `C#CCN1C(=O)C[C@H]1c1ccccc1` [Compound 49, (S)-4-phenyl-1-(prop-2-ynyl)azetidin-2-one], 1000 to 100000 nM; in that of `O=C1C[C@@H](c2ccccc2)N1CC1CC1` [Compound 50, (S)-1-(cyclopropylmethyl)-4-phenylazetidin-2-one], 1000 to 100000 nM. The same measure, in the same setting: in the case of `CCN1C(=O)OC[C@H]1c1ccccc1` [Compound 51, (R)-3-ethyl-4-phenyloxazolidin-2-one] it was 1000 to 100000 nM; in that of `C#CCN1C(=O)OC[C@H]1c1ccccc1` [Compound 52, (R)-4-phenyl-3-(prop-2-yn-1-yl)oxazolidin-2-one], 1000 to 100000 nM. For `CCC(C)(C)C(=O)N1CCC=C[C@H]1C1CCCCC1` [Compound 53], where the note is “range given in uM”, the EC50 lay within 1000 to 1e+06 nM.

In the case of `C=CC(C)(C)C(=O)N1CCC=C[C@H]1C1CCCCC1` [Compound 54], under “range given in uM”, the concentration giving a half-maximal response (EC50) was in the range of 1000 to 1e+06 nM. Turning to `CCC(C)(C)C(=O)N1C=CC=CC1c1ccccc1` (stereo not drawn) [Compound 55], the 50% effective concentration (EC50) (range given in uM) was 1000 to 1e+06 nM. Same read-out and setting: in the case of `CCC(C)(C)C(=O)N1C=CC=CC1C1CCCCC1` (stereo not drawn) [Compound 56] it was 1000 to 1e+06 nM; in that of `C=CC(C)(C)C(=O)N1C=CC=C[C@H]1C1CCCCC1` [Compound 57], 1000 to 1e+06 nM. For `C=CC(C)(C)C(=O)N1C=CC=CC1c1ccccc1` (stereo not drawn) [Compound 58], where the note is “range given in uM”, the EC50 is 1000 to 1e+06 nM.

For the compound `CCC(C)(C)C(=O)N1CCC1c1cccs1` (stereo not drawn) [Compound 59], the EC50 (range given in uM) fell in the range of 1000 to 1e+06 nM. Same read-out and setting: in the case of `CCC(C)(C)C(=O)N1CCC1c1ccc(C)s1` (stereo not drawn) [Compound 60] it was 1000 to 1e+06 nM; in that of `CCC(C)(C)C(=O)N1CCC1c1ccco1` (stereo not drawn) [Compound 61], 1000 to 1e+06 nM; in that of `C=CC(C)(C)C(=O)N1CCC1c1cccs1` (stereo not drawn) [Compound 62], 1000 to 1e+06 nM. On the same count and under the same terms, in the case of `C=CC(C)(C)C(=O)N1CCC1c1ccc(C)s1` (stereo not drawn) [Compound 63] it was 1000 to 1e+06 nM; in that of `C=CC(C)(C)C(=O)N1CCC1c1ccco1` (stereo not drawn) [Compound 64], 1000 to 1e+06 nM. Same read-out and setting: in the case of `CCC(C)(C)C(=O)N1CCC1c1ncc(C)s1` (stereo not drawn) [Compound 65] it was 1000 to 1e+06 nM; in that of `C=CC(C)(C)C(=O)N1CCC1c1ncc(C)s1` (stereo not drawn) [Compound 66], 1000 to 1e+06 nM. Regarding `CCC(C)(C)C(=O)N1CCC1c1ccccc1F` (stereo not drawn) [Compound 67], under “range given in uM”, the EC50 fell in the range of 1000 to 1e+06 nM. The same measure, in the same setting: in the case of `C=CC(C)(C)C(=O)N1CC[C@H]1c1ccccc1` [Compound 68] it was 1000 to 1e+06 nM.

Regarding `C=CC(C)(C)C(=O)N1CCCC1c1ccccc1` (stereo not drawn) [Compound 69], under “range given in uM”, the EC50 fell in the range of 1000 to 1e+06 nM. Turning to `CCC(C)(C)S(=O)(=O)N1CC[C@H]1c1ccccc1` [Compound 70], the EC50 (range given in uM) is 1000 to 1e+06 nM. For `CCC(C)(C)C(=O)N1CCC1c1cccc(F)c1` (stereo not drawn) [Compound 71], the concentration for a half-maximal effect (EC50) (range given in uM) was 1000 to 1e+06 nM. Same read-out and setting: in the case of `CCC(C)(C)C(=O)N1CC=C[C@H]1c1ccccc1` [Compound 72] it was 1000 to 1e+06 nM; in that of `C=CC(C)(C)C(=O)N1CC=C[C@H]1c1ccccc1` [Compound 73], 1000 to 1e+06 nM; in that of `CCC(C)(C)C(=O)N1CCC=C[C@H]1c1ccccc1` [Compound 74], 1000 to 1e+06 nM. Still for that read-out and setting: in the case of `C=CC(C)(C)C(=O)N1CCC=C[C@H]1c1ccccc1` [Compound 75] it was 1000 to 1e+06 nM. Still for that read-out and setting: in the case of `CCC(C)(C)C(=O)N1OCCC1c1ccccc1` (stereo not drawn) [Compound 76] it was 1000 to 1e+06 nM. On to `C=CC(C)(C)C(=O)N1OCCC1c1ccccc1` (stereo not drawn) [Compound 77], for which the EC50 (range given in uM) lay within 1000 to 1e+06 nM. Take `CCC(C)(C)C(=O)n1cccc1-c1ccccc1` [Compound 78, 2,2-dimethyl-1-(2-phenyl-1H-pyrrol-1-yl)butan-1-one]: the EC50 under setting [1] was 1000 to 100000 nM.

These data come from patent US10092529B2, “Necrosis inhibitors” (National Institute of Biological Sciences, Beijing, priority 2014, dated 2018).
